Consider seven compounds from patent publication US9957214B2, “Multifunctional radical quenchers” (ARIZONA BOARD OF REGENTS ON BEHALF OF ARIZONA STATE …, priority 2012, dated 2018).

The target of assay [1] is bovine heart mitochondrial complex I (Bos taurus, UniProt P03887+P17694+P42026). The assay can be described thus: Complex I (NADH-Q1 oxidoreductase) inhibition in submitochondrial particles. In kind it is biochemical. As to conditions: submitochondrial particles, 30° C.; for IC50: read-out: Complex I inhibition IC50; for Emax: read-out: Complex I inhibition Imax.
The test system of assay [2] is FRDA lymphocytes. Nature of the assay: Preservation of mitochondrial membrane potential (TMRM flow cytometry) in DEM-treated FRDA lymphocytes. It is filed as cell-based. As for the experimental part: FIG. 3. Effect of nitrogen-containing 1,4-benzoquinone derivatives on mitochondrial membrane potential of cultured FRDA cells. Representative flow cytometric two dimensional color density dot plot analyses of mitochondrial membrane potential Δψm in FRDA lymphocytes stained with TMRM and analyzed using the FL2-H channel as described in Experimental Section. The cells were washed twice in phosphate buffered saline, and suspended in phosphate buffered saline containing 20 mM glucose. The percentage of cells with intact Δψm is indicated in the top right quadrant of captions. In each analysis, 10,000 events were recorded. Data are expressed as means±SEM of three independent experiments run in duplicate.
Mitochondrial membrane potential was measured using two different fluorescent dyes, TMRM and JC-1. Δψm was determined as previously described by staining FRDA lymphocyte cells with TMRM (Molecular Probes, Eugene, Oreg.) and analyzing fluorescence emission by flow cytometry in detection channel 2 (FL2-H) (Khdour et al. (2011) Pharmaceut. Res. 28, 2896-2909). Briefly, FRDA lymphocytes were pre-treated with or without the test compounds for 16 h. The cells were treated with 5 mM DEM for 140 min, collected by centrifugation at 300×g for 3 min and then washed twice with phosphate buffered saline. The cells were resuspended in PBS containing […] and incubated at 37° C. in the dark for 15 min with 250 nM TMRM. Cells were collected by centrifugation at 300×g for 3 min and were then washed with phosphate buffered saline. The samples were analyzed immediately by flow cytometry using a 488 nm excitation laser and the FL2-H channel. The results obtained were verified in three independent experiments. […] In each analysis, 10,000 events were recorded. […] The following day, cells were treated with tested compounds and incubated for an additional 12 h before treatment with 1 mM BSO. Δψm was assessed after 24 h using JC-1 Mitochondrial Membrane Potential Detection Kit (Biotium, Inc) following the manufacturer instruction. Glass cover slips were rinsed with phosphate-buffered saline and mounted onto slides, and images were recorded and analyzed with a Zeiss AxioCam MRm and AxioVision 3.1 software (Carl Zeiss Goettingen, Germany) on a Zeiss Axiovert 200 M inverted microscope, equipped with a 40× oil immersion objective.
The ability of the test compounds to preserve mitochondrial membrane potential under conditions of oxidative stress was studied. […] Changes in mitochondrial membrane potential (Δψm) were measured using two different fluorescent dyes, tetramethylrhodamine methyl ester (TMRM) and 5,5′,6,6′-tetrachloro-1,1′,3,3′-tetraethylbenzimidazolocarbocyanine iodide (JC-1). […] The fluorescence signal of TMRM can be directly co-related to Δψm across the inner mitochondrial membrane. […]

The subject of assay [3] is CEM leukemia cells. Nature of the assay: Suppression of ROS production (DCFH-DA flow cytometry) in DEM-treated CEM leukemia cells. As to conditions: CEM leukemia cells pretreated with DEM, read-out: Scavenging activity (%), suppression of ROS production. It is filed as cell-based. As for the experimental part: FIG. 1. Flow cytometric analysis of CEM leukemia lymphocytes (gray bars) and FRDA lymphocytes (black bars) stained with dichlorodihydrofluorescein diacetate (DCFH-DA) for 20 min, following pretreatment with the test compounds at 5 μM concentration for 16 h, and subsequent treatment with diethyl maleate (DEM) for 60 or 80 min to induce the production of ROS in CEM and FRDA lymphocytes, respectively. Data shown represent the mean±SEM of two different experiments run as duplicates.
Intracellular ROS production was measured in FRDA lymphocyte cells (GM15850, Coriell Cell Repositories, Camden, N.J.) using the oxidant sensitive fluorescent probe 2,7-dichlorodihydrofluorescein diacetate (DCFH-DA) (Molecular Probes) as described previously (Khdour et al. (2011) Pharm. Res. 28, 2896-2909). One mL of FRDA lymphocyte cells or leukemic CEM cells (5×10^5 cells) were plated in a 24-well plate, treated with the test compounds and incubated at 37° C. for 16 h in a humidified atmosphere containing 5% CO2 in air. Cells were treated with 5 mM diethyl maleate (DEM) for 80 min or 60 min respectively, collected by centrifugation at 300×g for 3 min and then washed with phosphate buffered saline (PBS) (Life Technologies). Cells were resuspended in PBS containing 20 mM glucose and incubated at 37° C. in the dark for […] with 10 μM DCFH-DA. Cells were collected by centrifugation at 300×g for 3 min and then washed with PBS. The samples were analyzed immediately by flow cytometry (C6 Accuri, BD Biosciences, San Jose, Calif.), using a 488 nm excitation laser and the FL1-H channel 530±15 nm emission filter. The generation of ROS, mainly peroxides, was detected as a result of the oxidation of DCFH. In each analysis, 10,000 events were recorded after cell debris was electronically gated out. Results obtained were verified by running duplicates and repeating experiments in three independent runs. Results were expressed as percentage of ROS scavenging activity.
The ability of the synthesized analogues to quench ROS and lipid peroxidation was evaluated in FRDA lymphocytes or leukemic CEM cells. These cells were placed under oxidative stress by depleting them of glutathione (GSH) using diethyl maleate (DEM). Depletion of glutathione by treatment FRDA lymphocytes or leukemic CEM cells with DEM has been used to induce oxidative stress in cellular systems by generation of ROS. Intracellular ROS production was measured using the oxidant sensitive fluorescent probe 2,7-dichlorodihydrofluorescein diacetate (DCFH-DA) (Molecular Probes).

Molecules are shown by their SMILES. Entries after “also recorded” stand apart in the source; their conditions may differ. A value given as a limit tells only on which side of the number the result lay.

Sequence of bovine heart mitochondrial complex I (P25708 21-464): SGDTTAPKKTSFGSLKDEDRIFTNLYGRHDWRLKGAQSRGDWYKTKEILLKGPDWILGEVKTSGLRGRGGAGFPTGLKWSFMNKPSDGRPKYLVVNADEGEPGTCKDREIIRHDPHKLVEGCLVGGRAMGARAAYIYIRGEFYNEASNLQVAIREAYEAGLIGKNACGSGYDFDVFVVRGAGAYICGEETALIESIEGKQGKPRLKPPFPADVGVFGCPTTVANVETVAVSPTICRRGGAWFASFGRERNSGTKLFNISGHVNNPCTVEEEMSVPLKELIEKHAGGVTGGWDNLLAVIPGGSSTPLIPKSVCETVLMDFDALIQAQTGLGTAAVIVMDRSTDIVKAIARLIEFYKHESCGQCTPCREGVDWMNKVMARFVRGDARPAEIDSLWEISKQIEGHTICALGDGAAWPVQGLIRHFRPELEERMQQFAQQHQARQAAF
Sequence of bovine heart mitochondrial complex I (P42026 38-216): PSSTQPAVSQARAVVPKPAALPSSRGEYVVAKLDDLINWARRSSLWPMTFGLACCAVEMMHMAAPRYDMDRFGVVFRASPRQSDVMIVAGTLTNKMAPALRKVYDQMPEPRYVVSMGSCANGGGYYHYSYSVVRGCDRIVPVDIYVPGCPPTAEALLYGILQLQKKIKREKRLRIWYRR
Sequence of bovine heart mitochondrial complex I (P17694 34-463): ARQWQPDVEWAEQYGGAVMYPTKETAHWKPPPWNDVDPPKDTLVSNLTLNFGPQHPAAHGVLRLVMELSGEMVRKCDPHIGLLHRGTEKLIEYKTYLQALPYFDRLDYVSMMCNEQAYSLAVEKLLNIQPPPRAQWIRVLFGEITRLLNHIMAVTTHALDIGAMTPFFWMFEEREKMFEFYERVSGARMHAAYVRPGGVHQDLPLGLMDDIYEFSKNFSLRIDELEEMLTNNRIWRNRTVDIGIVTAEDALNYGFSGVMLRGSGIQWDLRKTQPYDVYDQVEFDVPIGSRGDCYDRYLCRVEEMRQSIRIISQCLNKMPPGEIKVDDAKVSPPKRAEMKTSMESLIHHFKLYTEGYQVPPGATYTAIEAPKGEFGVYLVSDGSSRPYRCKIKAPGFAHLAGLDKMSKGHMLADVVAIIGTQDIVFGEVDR
Sequence of bovine heart mitochondrial complex I (P15690 24-727, further chain): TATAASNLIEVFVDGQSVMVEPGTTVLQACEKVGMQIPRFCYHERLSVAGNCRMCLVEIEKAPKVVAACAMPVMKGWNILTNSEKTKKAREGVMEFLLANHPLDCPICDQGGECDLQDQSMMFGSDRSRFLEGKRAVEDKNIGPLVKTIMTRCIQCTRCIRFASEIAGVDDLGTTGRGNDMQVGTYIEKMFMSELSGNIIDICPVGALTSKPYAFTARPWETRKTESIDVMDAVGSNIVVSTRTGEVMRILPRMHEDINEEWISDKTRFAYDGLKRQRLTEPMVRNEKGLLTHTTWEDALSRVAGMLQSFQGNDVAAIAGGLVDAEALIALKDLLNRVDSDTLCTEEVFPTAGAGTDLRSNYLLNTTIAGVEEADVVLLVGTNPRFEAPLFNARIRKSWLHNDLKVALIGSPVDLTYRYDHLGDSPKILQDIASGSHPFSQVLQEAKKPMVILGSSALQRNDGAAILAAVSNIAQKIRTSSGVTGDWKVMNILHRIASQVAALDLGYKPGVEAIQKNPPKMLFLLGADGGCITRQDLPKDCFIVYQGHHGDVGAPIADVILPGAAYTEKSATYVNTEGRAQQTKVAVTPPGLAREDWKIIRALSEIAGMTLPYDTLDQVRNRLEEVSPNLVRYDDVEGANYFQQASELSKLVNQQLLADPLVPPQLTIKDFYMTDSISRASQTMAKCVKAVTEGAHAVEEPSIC
Sequence of bovine heart mitochondrial complex I (P03887 whole entry): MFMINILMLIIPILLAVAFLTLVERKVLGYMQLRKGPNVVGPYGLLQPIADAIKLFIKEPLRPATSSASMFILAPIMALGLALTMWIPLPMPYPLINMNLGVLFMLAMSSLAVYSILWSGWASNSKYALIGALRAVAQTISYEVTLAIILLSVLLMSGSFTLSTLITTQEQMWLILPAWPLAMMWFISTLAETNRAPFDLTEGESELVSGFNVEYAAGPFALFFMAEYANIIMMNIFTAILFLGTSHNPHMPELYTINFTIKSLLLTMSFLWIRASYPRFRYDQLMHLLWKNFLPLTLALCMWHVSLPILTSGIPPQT
Sequence of bovine heart mitochondrial complex I (P42028 37-212, further chain): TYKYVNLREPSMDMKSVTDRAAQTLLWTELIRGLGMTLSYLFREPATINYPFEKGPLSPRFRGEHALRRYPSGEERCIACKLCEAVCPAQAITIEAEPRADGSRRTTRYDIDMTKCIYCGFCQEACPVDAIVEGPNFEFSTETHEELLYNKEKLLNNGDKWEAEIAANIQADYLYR

On to `CCCCCCCCCCCCCC1=C(OC)C(=O)C=C(NCCCC(=O)OC(C)(C)C)C1=O` [Compound 7, tert-butyl 4-(4-methoxy-3,6-dioxo-5-tridecylcyclohexa-1,4-dienylamino)butanoate], for which, in assay [1], the IC50 was determined as 540 ± 17 µM and the Emax was over 85%. The “Preservation of mitochondrial membrane potential Δψm (in words)” value in assay [2] is reported as “preserved mitochondrial membrane potential; also recorded: able to prevent oxidative-stress induced collapse of Δψm”.

For the compound `CCCCCCCCCCCCCC1=C(OC)C(=O)C(C)=C(NCCCC(=O)OCCCCCC)C1=O` [Compound 49, Hexyl 4-(4-methoxy-2-methyl-3,6-dioxo-5-tridecylcyclohexa-1,4-dienylamino)butanoate], the inhibition at 5 µM in assay [3] came to 16 ± 8%.

As for `COC1=C2CCCCCCCCCCCCCCCNC(=CC1=O)C2=O` [Compound 40], in assay [2], the “Preservation of mitochondrial membrane potential Δψm (in words)” value is recorded as “prevented the loss of Δψm; also recorded: able to prevent oxidative-stress induced collapse of Δψm”.

As for `CCCCCCCCCCCCCC1=C(OC)C(=O)C(C)=C(NCCCC(=O)OC(C)(C)C)C1=O` [Compound 43, tert-butyl 4-(4-methoxy-2-methyl-3,6-dioxo-5-tridecylcyclohexa-1,4-dienylamino)butanoate], the inhibition at 5 µM in assay [3] was 35 ± 6%.

Consider `CCCCCCCCCCCCCC1=C(OC)C(=O)C(C)=C(NCCCC(=O)OCCCC)C1=O` [Compound 46, Butyl 4-(4-methoxy-2-methyl-3,6-dioxo-5-tridecylcyclohexa-1,4-dienylamino)butanoate], for which, in assay [3], the inhibition at 5 µM worked out at 50 ± 5%.

On to `CCCCCCCCCCCCCC1=C(OC)C(=O)C=C(NCCCC(=O)OCCCCCC)C1=O` [Compound 18, Hexyl 4-(4-methoxy-3,6-dioxo-5-tridecylcyclohexa-1,4-dienylamino)butanoate], for which, in assay [1], the IC50 came out at 513 ± 38 µM and the Emax was over 85%. In addition, the “Preservation of mitochondrial membrane potential Δψm (in words)” value in assay [2] is recorded as “prevented the loss of Δψm”.

`CCCCCCCCCCCCCC1=C(NCCCC(=O)OCCCCCC)C(=O)C(C)=C(NCCCC(=O)OCCCCCC)C1=O` [Compound 50, 2,5-bis(hexyl 4-aminobutanoate)-3-methyl-6-tridecylcyclohexa-2,5-diene-1,4-dione]: in assay [3], the inhibition at 5 µM amounted to 14 ± 1%.
